According to PubChem BioAssay AID1996:
Converted amounts (≈) assume the structure as drawn.

Conditions: buffer; pH 7.4; 200.0 µM

`Cn1cc(S(=O)(=O)N2CCCC2)cc1C(=O)O` and `O=C1CCN(S(=O)(=O)c2ccc(Cl)cc2)CCN1` cannot be ordered by solubility kinetic: > 38.7 µg/mL for the first, > 43.3 µg/mL for the second.

First: COc1ccc(N2CCN(CC(=O)NC(C)c3ccccc3)CC2)cc1 (stereo unspecified)
Second: CC(NC(=S)N1CCN(c2ccccc2)CC1)c1ccccc1 (stereo unspecified)
The solubility kinetic of the first is 110-fold higher: 45.1 µg/mL (≈ 128 µM) for the first, 0.4 µg/mL (≈ 1.23 µM) for the second.

`Cc1cc2c(NCCc3ccccc3)ncnc2s1.Cl` and `CCOc1ncccc1C(=O)NCCc1c[nH]c2ccccc12` are the same in solubility kinetic: 8.7 µg/mL for the first, 8.7 µg/mL (≈ 28.1 µM) for the second.

First: O=C1C=C(N2CCCCCC2)C(=O)N1c1ccc(Cl)cc1
Second: COc1cc2nc(Cl)nc(N3CCCCC3)c2cc1OC
The solubility kinetic of the first is 7.4-fold higher: 8.9 µg/mL (≈ 29.2 µM) for the first, 1.2 µg/mL (≈ 3.9 µM) for the second.

Going from `O=S(=O)(c1ccc(Cl)nc1)N1CCC(Cc2ccccc2)CC1` to `O=C(NCc1cccnc1)C1CC(c2ccccc2Cl)=NO1` (stereo unspecified), the solubility kinetic rises from 2.5 µg/mL (≈ 7.13 µM) to > 47.4 µg/mL.

Going from `O=Cc1cccn1-c1ncc(Br)cn1` to `CSc1ncccc1C(=O)Nc1nccs1`, the solubility kinetic rises from 30.6 µg/mL (≈ 121 µM) to > 37.7 µg/mL.

`N#Cc1ccccc1NC(=O)CN1CCOCC1` and `Cc1ccc(-c2csc(NC(=O)CN3CCOCC3)n2)cc1C` cannot be ordered by solubility kinetic: > 36.8 µg/mL for the first, 39.2 µg/mL (≈ 118 µM) for the second.

Compared with `O=C(O)CCC(=O)Nc1nc2nccc(-c3ccccc3)n2n1`, `O=C(O)CCC(=O)Nc1ccc(OCC2CCCO2)cc1` (stereo unspecified) is lower in solubility kinetic: > 46.7 µg/mL for the first, 43.8 µg/mL (≈ 149 µM) for the second.

`Cn1cc(-c2ccccc2C(=O)O)c(=O)c2cc(Cl)ccc21` and `Cc1c(NC(=O)CSCc2ccc(Cl)cc2Cl)cccc1C(=O)O` cannot be ordered by solubility kinetic: > 47.1 µg/mL for the first, > 57.6 µg/mL for the second.

First: C[C@@H](NCCc1ccc(O)cc1)[C@@H](O)c1ccc(O)cc1.Cl
Second: CCOc1ccc(CNC(=O)Nc2ccccc2)cc1
The solubility kinetic of the first is higher: > 48.6 µg/mL for the first, 3.8 µg/mL (≈ 14.1 µM) for the second.

First: Cc1csc(=O)n1CC(=O)Nc1ccc(Cl)cc1F
Second: O=C(Cc1ccccc1)Nc1ccc(NC(=O)c2ccco2)cc1Cl
The solubility kinetic of the first is 3.8-fold higher: 9 µg/mL (≈ 29.9 µM) for the first, 2.4 µg/mL (≈ 6.76 µM) for the second.

`COCCNC(=S)N1CCC(C(=O)c2ccc(C)cc2)CC1` and `Cc1ccc(C(=O)N2CCC(C(=O)NC3CCCCCC3)CC2)cc1` are within 1.5-fold of each other in solubility kinetic: 43.2 µg/mL (≈ 135 µM) for the first, 48.1 µg/mL (≈ 140 µM) for the second.

First: O=c1nc(SCc2cccc(C(F)(F)F)c2)nc2ccccn12
Second: Nc1cccc(-c2cnc3ccccc3n2)c1
The solubility kinetic of the first is lower: 7 µg/mL (≈ 20.8 µM) for the first, > 33.2 µg/mL for the second.

Compared with `Cc1ccc(C(=O)N2CC(=O)NC(=O)C2)cc1`, `CCOc1ccc(C2CC(=O)NC2=O)cc1` (stereo unspecified) is higher in solubility kinetic: 29.6 µg/mL (≈ 127 µM) for the first, > 32.9 µg/mL for the second.

Going from `Cc1ccc(OCCC(=O)Nc2ccc3c(c2)OCO3)cc1` to `CN(C)c1ccc(NC(=O)c2ccc3nc[nH]c3c2)cc1`, the solubility kinetic rises from 14.8 µg/mL (≈ 49.4 µM) to > 42 µg/mL.

`O=C(CN(Cc1ccco1)C(=O)c1ccc(F)cc1)Nc1ccccc1Br` and `O=C(NNC(=O)c1ccccc1-n1cccc1)c1ccc(F)cc1` cannot be ordered by solubility kinetic: > 64.7 µg/mL for the first, > 48.5 µg/mL for the second.

`CSCCC(=O)Nc1nc(-c2ccccn2)cs1` and `CSc1ccccc1NC(=O)COC(=O)Cc1ccsc1` cannot be ordered by solubility kinetic: > 41.9 µg/mL for the first, > 48.2 µg/mL for the second.

Going from `CCc1nc2ccc(N3CCN(C)CC3)cc2nc1CC` to `CN1CCN(c2ccc(NC(=O)CN3CCOCC3)cc2F)CC1`, the solubility kinetic rises from 35.2 µg/mL (≈ 124 µM) to > 50.5 µg/mL.

`N#CC(=C=[N-])/C=C(\C(=O)c1ccccc1)[n+]1ccccc1` and `O=C(COc1ccccc1)Nc1ccncc1` cannot be ordered by solubility kinetic: > 41 µg/mL for the first, > 34.2 µg/mL for the second.

First: C=CCC(=O)N1CCCC(CO)(Cc2ccc(F)cc2F)C1 (stereo unspecified)
Second: O=C(OCC(=O)N1CCN(C(=O)c2ccco2)CC1)c1c(Cl)cccc1Cl
The solubility kinetic of the first is lower: 41.8 µg/mL (≈ 135 µM) for the first, > 61.7 µg/mL for the second.

First: C[N+]12CCCCC1[C@@H](CO)CCC2.[Br-] (stereo partly specified)
Second: Cc1[nH]c2ccccc2c1C(=O)C(C)OC(=O)C1CCC1 (stereo unspecified)
The solubility kinetic of the first is lower: 39.1 µg/mL for the first, > 42.8 µg/mL for the second.

`CCCCCCOc1ccc(C(=O)NCCCn2ccnc2)cc1` and `O=C(/C=C/c1ccc(F)cc1)NCCCn1ccnc1` cannot be ordered by solubility kinetic: > 49.4 µg/mL for the first, > 41 µg/mL for the second.

Compared with `CSc1ccccc1NC(=O)COC(=O)CCc1ccccc1`, `COc1ccccc1C(=O)NCCC(=O)NCCOc1ccccc1` is higher in solubility kinetic: 27.8 µg/mL (≈ 84.4 µM) for the first, > 51.4 µg/mL for the second.

`CC(C)c1ccc(C(=O)NCCCN2CCOCC2)cc1` and `CC(=O)N1CCN(C(=S)Nc2ccc(SC(F)F)cc2)CC1` cannot be ordered by solubility kinetic: > 43.6 µg/mL for the first, > 51.8 µg/mL for the second.

Compared with `COc1ccc(/C=C/C(=O)OCC(=O)NCCCc2ccccc2)cc1OC`, `COc1cccc(NC(=O)CN(C)C(=O)c2ccccn2)c1` is higher in solubility kinetic: 20 µg/mL (≈ 52.2 µM) for the first, > 44.9 µg/mL for the second.

Compared with `COc1cccc(N(C(C)=O)C2=NCCCS2)c1`, `O=C(Nc1cccc(Cl)c1)NC1CCS(=O)(=O)C1` (stereo unspecified) is lower in solubility kinetic: > 39.7 µg/mL for the first, 36.4 µg/mL (≈ 126 µM) for the second.

`COc1cc(NS(=O)(=O)c2ccc(NC(=O)/C=C/C(=O)O)cc2)nc(OC)n1` and `Cc1cc(Nc2ccc(C)c(C)c2)c2ccccc2n1` cannot be ordered by solubility kinetic: > 61.3 µg/mL for the first, > 39.4 µg/mL for the second.

Compared with `O=[N+]([O-])c1ccc(CS(=O)(=O)c2ccc(Cl)cc2)cc1`, `Cn1c(/C=C/c2cccc([N+](=O)[O-])c2)c([N+](=O)[O-])c(=O)n(C)c1=O` is 14-fold higher in solubility kinetic: 3.4 µg/mL (≈ 10.9 µM) for the first, 48.6 µg/mL (≈ 146 µM) for the second.

Going from `Fc1ccc(SCCc2cccc[nH+]2)cc1.O=P([O-])(O)O` to `Cc1cccc(NC(=O)CNC(=O)CSc2ncccn2)c1C`, the solubility kinetic rises from 9.7 µg/mL to > 49.6 µg/mL.

Compared with `Cc1ccccc1CC(=O)Nc1cc(C(C)(C)C)on1`, `Oc1c(Cl)cc(Cl)cc1CNc1nc2ccccc2[nH]1` is 11-fold lower in solubility kinetic: 36.9 µg/mL (≈ 135 µM) for the first, 3.5 µg/mL (≈ 11.4 µM) for the second.

With `C=CCn1c(SCc2ccccc2)nc2c1c(=O)[nH]c(=O)n2C` the solubility kinetic was 25 µg/mL (≈ 76.1 µM).
